{"source": "ChEMBL document CHEMBL1201862", "about": "“PubChem BioAssay data set” (2004)", "format_in_all_cases": "functional", "key": {"[1]": {"target": "Activated CDC42 kinase 1 (Homo sapiens, UniProt Q07912)", "sequence (Q07912 whole entry)": "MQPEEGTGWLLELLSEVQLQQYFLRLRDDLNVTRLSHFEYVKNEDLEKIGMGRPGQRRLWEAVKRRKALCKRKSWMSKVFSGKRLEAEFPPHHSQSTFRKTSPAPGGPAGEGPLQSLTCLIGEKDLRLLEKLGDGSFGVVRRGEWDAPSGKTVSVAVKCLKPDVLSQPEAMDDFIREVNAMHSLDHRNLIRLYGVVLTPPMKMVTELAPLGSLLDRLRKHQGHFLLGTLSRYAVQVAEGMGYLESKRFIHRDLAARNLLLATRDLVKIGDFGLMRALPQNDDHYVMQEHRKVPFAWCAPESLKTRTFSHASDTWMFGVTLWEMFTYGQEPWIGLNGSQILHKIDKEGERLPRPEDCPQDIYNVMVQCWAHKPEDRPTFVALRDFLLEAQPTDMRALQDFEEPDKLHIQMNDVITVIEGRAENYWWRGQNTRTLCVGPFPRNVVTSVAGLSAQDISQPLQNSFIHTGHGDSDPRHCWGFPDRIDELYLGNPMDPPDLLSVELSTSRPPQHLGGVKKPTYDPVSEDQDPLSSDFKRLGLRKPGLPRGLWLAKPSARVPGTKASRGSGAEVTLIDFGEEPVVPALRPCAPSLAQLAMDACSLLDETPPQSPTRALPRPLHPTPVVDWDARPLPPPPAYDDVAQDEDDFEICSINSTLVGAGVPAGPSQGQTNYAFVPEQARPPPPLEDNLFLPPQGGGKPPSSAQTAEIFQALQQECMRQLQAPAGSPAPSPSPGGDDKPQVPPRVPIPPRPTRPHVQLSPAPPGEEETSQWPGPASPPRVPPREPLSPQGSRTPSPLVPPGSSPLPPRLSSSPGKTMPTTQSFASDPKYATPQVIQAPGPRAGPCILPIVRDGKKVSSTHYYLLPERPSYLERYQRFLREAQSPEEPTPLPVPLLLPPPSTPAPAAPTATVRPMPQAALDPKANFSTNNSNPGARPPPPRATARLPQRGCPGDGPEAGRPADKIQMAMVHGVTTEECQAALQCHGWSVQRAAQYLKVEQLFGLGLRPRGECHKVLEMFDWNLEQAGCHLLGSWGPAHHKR", "experiment": "Navigating the Kinome. Panel member name: ACK1"}, "[2]": {"target": "T1, Apoptotic protease-activating factor 1 (Homo sapiens, UniProt O14727)", "T1 sequence (O14727 whole entry)": "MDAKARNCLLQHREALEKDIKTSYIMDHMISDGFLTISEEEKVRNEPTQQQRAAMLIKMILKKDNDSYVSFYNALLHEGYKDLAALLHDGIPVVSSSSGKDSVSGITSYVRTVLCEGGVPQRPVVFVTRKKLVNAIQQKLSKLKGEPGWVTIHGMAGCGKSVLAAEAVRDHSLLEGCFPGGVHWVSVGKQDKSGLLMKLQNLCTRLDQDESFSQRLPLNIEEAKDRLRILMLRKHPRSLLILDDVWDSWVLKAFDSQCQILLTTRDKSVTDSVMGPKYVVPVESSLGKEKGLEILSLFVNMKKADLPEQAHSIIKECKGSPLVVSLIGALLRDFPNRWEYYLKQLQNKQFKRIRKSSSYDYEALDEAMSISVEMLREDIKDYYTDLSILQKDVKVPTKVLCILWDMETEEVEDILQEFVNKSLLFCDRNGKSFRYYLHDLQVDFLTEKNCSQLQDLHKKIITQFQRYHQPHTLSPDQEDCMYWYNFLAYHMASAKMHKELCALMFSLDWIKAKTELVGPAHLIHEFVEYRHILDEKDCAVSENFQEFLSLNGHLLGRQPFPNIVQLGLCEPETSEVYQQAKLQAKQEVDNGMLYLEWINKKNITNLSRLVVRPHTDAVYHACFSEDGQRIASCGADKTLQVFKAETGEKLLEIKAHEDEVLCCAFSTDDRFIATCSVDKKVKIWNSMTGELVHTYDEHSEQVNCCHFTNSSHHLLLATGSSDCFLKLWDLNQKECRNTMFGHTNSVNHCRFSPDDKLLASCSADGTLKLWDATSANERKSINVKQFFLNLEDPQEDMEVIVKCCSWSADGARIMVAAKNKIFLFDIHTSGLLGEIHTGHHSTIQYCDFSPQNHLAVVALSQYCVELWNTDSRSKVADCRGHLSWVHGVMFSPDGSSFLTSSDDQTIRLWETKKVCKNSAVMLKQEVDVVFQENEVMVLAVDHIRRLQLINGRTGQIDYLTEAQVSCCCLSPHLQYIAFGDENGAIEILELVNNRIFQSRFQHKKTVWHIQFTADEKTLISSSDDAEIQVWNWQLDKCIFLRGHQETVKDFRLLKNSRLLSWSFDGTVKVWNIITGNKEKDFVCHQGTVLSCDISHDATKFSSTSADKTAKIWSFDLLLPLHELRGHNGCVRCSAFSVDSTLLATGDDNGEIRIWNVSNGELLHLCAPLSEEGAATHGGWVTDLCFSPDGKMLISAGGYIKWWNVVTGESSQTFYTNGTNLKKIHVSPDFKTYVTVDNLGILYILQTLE"}, "[3]": {"target": "T2, Protein RecA (Mycobacterium tuberculosis, UniProt P9WHJ3)", "T2 sequence (P9WHJ3 whole entry)": "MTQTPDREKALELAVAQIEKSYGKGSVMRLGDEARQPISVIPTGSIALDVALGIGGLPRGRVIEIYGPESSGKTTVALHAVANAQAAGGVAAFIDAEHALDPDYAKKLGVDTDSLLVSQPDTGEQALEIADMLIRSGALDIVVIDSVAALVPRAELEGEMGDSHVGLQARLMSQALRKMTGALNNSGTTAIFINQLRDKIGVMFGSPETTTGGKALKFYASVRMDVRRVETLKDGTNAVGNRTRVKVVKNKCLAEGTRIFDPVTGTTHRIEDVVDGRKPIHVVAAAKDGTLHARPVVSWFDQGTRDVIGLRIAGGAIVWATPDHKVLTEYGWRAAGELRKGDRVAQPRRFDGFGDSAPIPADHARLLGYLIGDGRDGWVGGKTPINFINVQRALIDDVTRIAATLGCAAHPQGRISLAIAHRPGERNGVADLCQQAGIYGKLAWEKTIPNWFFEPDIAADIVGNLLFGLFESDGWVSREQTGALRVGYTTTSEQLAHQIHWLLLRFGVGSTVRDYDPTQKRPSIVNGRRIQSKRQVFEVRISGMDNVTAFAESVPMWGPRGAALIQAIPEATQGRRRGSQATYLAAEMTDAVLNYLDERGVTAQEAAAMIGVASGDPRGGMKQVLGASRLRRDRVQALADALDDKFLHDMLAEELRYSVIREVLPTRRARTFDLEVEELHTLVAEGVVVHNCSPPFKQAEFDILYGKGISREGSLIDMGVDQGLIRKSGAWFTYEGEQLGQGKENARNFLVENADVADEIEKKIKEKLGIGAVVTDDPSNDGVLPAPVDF", "experiment": "Fluorescence Cell-Free Homogeneous Dose Retest to Identify Inhibitors of RecA-Intein Splicing Activity. [Related pubchem assays (depositor defined):AID2097, AID2223, AID489010, AID492950]"}, "[4]": {"target": "Mitogen-activated protein kinase 14 (Homo sapiens, UniProt Q16539)", "sequence (Q16539 whole entry)": "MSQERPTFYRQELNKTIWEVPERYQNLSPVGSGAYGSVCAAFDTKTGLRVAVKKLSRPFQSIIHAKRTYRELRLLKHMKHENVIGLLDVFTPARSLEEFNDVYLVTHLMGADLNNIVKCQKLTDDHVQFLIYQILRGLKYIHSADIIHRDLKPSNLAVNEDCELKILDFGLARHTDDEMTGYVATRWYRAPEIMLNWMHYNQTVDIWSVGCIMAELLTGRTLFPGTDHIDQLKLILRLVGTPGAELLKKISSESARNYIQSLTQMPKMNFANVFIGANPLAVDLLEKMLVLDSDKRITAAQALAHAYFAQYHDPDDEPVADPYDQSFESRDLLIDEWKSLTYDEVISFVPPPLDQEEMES"}}, "note": "Active and inactive are the calls of the source."}
{"smiles": "O=c1[nH]c2cc(Br)cnc2[nH]1", "values": [{"measurement": "Ki", "setting": "[1]", "result": "50.1 µM (active)"}]}
{"smiles": "O=C(Cc1ccccc1)NC1(O)C(=O)c2ccccc2C1=O", "values": [{"measurement": "IC50", "setting": "[2]", "result": "11 µM (active)"}, {"measurement": "EC50", "setting": "[3]", "result": "8.67 µM (active)"}]}
{"smiles": "CCC1CC(NS(=O)(=O)C2CC2)CC1c1ncc2cnc3[nH]ccc3n12", "note": "(stereo not drawn)", "values": [{"measurement": "Ki", "setting": "[1]", "result": "1.58 µM (active)"}, {"measurement": "Ki", "setting": "[4]", "result": "> 3.98 µM (inactive)"}]}
{"smiles": "O=C(Nc1cccc(C(F)(F)F)n1)Nc1ccnc2cc(OC(F)F)ccc12", "values": [{"measurement": "Ki", "setting": "[1]", "result": "> 3.98 µM (inactive)"}, {"measurement": "Ki", "setting": "[4]", "result": "> 3.98 µM (inactive)"}]}
{"smiles": "O=C(Nc1cccc(C(F)(F)F)n1)Nc1ccnc2cc(Cl)ccc12", "values": [{"measurement": "Ki", "setting": "[1]", "result": "> 3.98 µM (inactive)"}, {"measurement": "Ki", "setting": "[4]", "result": "> 3.98 µM (inactive)"}]}
{"smiles": "COC(=O)c1nc(-c2ccc3c(n2)C(=O)C(=N)C(OC)=C3O)c(N)c(-c2ccc(OC)c(OC)c2O)c1C", "values": [{"measurement": "IC50", "setting": "[2]", "result": "3.39 µM (active)"}, {"measurement": "EC50", "setting": "[3]", "result": "0.342 µM (active)"}]}
{"smiles": "Cc1cc(C)c(S(=O)(=O)/N=C2\\C=C(Nc3ccc(C(=O)O)cc3)C(=O)c3ccccc32)c(C)c1", "values": [{"measurement": "IC50", "setting": "[2]", "result": "6.01 µM (active)"}, {"measurement": "EC50", "setting": "[3]", "result": "0.0696 µM (active)"}]}
